Assay results reported in patent US10265307B2, “Thiazolecarboxamides and pyridinecarboxamide compounds useful as Pim kinase inhibitors” (Incyte Corporation, priority 2013, dated 2019).

What was measured:
Type in all cases: biochemical
[1] = molecular target: Pim-3 (Homo sapiens (Human), UniProt Q86V86); assay: Pim-3 kinase assay; conditions: 1 mM ATP; read-out: Pim3 IC50
Description: Pim-1 and Pim-3 kinase assays-20 μL reactions were run in white 384 well polystyrene plates dotted with 0.8 μL compound/DMSO in the assay buffer (50 mM Tris, pH 7.5, 0.01% Tween-20, 5 mM MgCl2, 0.01% BSA, 5 mM DTT), containing 0.05 μM Biotin-labeled BAD peptide substrate (AnaSpec 62269), 1 mM ATP, and […] (Pim-1, Invitrogen PV3503) or […] (Pim-3, Millipore 14-738) enzyme for 1 h at 25° C. Reactions were stopped by addition of 10 μL STOP Buffer (150 mM Tris, pH=7.5, 150 mM NaCl, 75 mM EDTA, 0.01% Tween-20, 0.3% BSA) supplemented with Phospho-Bad (Ser112) Antibody (Cell Signaling 9291) diluted 666-fold, and Streptavidin donor beads (PerkinElmer 6760002) along with Protein-A acceptor beads (PerkinElmer 6760137) at 15 μg/mL each. Supplementation of the STOP buffer with beads and stopping the reactions were done under reduced light. Prior to the stopping reactions STOP buffer with beads was pre-incubated for 1 h in the dark at room temperature. After stopping the reactions, plates were incubated for 1 h in the dark at room temperature before reading on a PHERAstar FS plate reader (BMG Labtech) under reduced light.

[2] = molecular target: Pim-1 (Homo sapiens (Human), UniProt P11309); assay: Pim-1 kinase assay; conditions: 1 mM ATP; read-out: Pim1 IC50
Chain of Pim-1 (P11309 whole entry): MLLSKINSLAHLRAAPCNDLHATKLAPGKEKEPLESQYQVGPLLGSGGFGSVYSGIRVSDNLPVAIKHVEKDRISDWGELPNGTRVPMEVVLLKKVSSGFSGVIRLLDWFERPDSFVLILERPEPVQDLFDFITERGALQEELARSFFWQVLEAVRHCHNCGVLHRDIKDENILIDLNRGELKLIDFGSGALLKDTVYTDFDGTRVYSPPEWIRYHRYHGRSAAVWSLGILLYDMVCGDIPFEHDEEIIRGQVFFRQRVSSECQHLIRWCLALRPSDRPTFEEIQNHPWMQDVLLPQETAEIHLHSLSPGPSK
Description: Supplementation of the STOP buffer with beads and stopping the reactions were done under reduced light. Prior to the stopping reactions STOP buffer with beads was pre-incubated for 1 h in the dark at room temperature. After stopping the reactions, plates were incubated for 1 h in the dark at room temperature before reading on a PHERAstar FS plate reader (BMG Labtech) under reduced light.

[3] = molecular target: Pim-2 (Homo sapiens (Human), UniProt Q9P1W9); assay: Pim-2 kinase assay; conditions: 1 mM ATP; read-out: Pim2 IC50
Chain of Pim-2 (Q9P1W9 whole entry): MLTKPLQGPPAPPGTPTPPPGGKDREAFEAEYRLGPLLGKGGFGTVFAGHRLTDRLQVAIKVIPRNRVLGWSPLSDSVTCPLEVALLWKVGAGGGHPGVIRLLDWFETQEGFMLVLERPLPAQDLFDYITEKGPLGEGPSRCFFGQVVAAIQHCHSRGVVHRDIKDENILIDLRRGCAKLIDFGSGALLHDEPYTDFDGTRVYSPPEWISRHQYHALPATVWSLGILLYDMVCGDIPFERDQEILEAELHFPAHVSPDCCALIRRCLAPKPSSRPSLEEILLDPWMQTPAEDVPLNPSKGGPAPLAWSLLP
Description: Pim-2 kinase assay-20 μL reactions were run in white 384 well polystyrene plates dotted with 0.8 μL compound/DMSO in the assay buffer (50 mM Tris, pH 7.5, 0.01% Tween-20, 5 mM MgCl2, 0.01% BSA, 5 mM DTT), containing 0.05 μM Fluorescein-labeled CREBtide peptide substrate (Invitrogen PV3508), 1 mM ATP, and 1 nM enzyme (Invitrogen PV3649) for 2 h at 25° C. Reactions were stopped by addition of 10 μL TR-FRET Dilution Buffer (Invitrogen PV3574) with 30 mM EDTA and 1.5 nM LanthaScreen Tb-CREB pSer133 antibody (Invitrogen PV3566). After 30 min. incubation at room temperature, plates were read on a PHERAstar FS plate reader (BMG Labtech).
Although the above in vitro assays are conducted at 1 mM ATP compounds can also be evaluated for potency and in vitro activity against PIM targets utilizing Km conditions, where the concentration of ATP is set to the Km value and the assay is more sensitive to PIM inhibition activity.

Row | Structure (SMILES) | IC50 [1] | IC50 [2] | IC50 [3]
1 | COc1ccc(F)c(-c2nc(C(=O)Nc3cnc4c(c3N3CCC[C@H](N)C3)CCC4O)c(N)s2)c1F (single isomer, unassigned) [53 (Diastereoisomer 2)] | ≤ 100 nM | ≤ 100 nM | ≤ 100 nM
2 | COc1ccc(F)c(-c2nc(C(=O)Nc3cnc4c(c3N3C[C@H](C)C[C@H](N)C3)CCC4O)c(N)s2)c1F (single isomer, unassigned) [54 (Diastereoisomer 1)] | ≤ 100 nM | ≤ 100 nM | ≤ 100 nM
3 | COc1ccc(F)c(-c2nc(C(=O)Nc3cnc4c(c3N3C[C@H](C)C[C@H](N)C3)CCC4O)c(N)s2)c1F (single isomer, unassigned) [54 (Diastereoisomer 2)] | ≤ 100 nM | ≤ 100 nM | ≤ 100 nM
4 | COc1ccc(F)c(-c2nc(C(=O)Nc3cnc4c(c3N3CCC[C@H](N)C3)CCC4O)ccc2F)c1F (single isomer, unassigned) [55 (Diastereoisomer 1)] | ≤ 100 nM | ≤ 100 nM | 100 to 1000 nM
5 | COc1ccc(F)c(-c2nc(C(=O)Nc3cnc4c(c3N3CCC[C@H](N)C3)CCC4O)ccc2F)c1F (single isomer, unassigned) [55 (Diastereoisomer 2)] | ≤ 100 nM | ≤ 100 nM | ≤ 100 nM
6 | COc1ccc(F)c(-c2nc(C(=O)Nc3cnc4c(c3N3C[C@H](C)C[C@H](N)C3)CCC4O)ccc2F)c1F (single isomer, unassigned) [56 (Diastereoisomer 1)] | ≤ 100 nM | ≤ 100 nM | ≤ 100 nM
7 | COc1ccc(F)c(-c2nc(C(=O)Nc3cnc4c(c3N3C[C@H](C)C[C@H](N)C3)CCC4O)ccc2F)c1F (single isomer, unassigned) [56 (Diastereoisomer 2)] | ≤ 100 nM | ≤ 100 nM | ≤ 100 nM
8 | CSc1cc(F)c(-c2nc(C(=O)Nc3cnc4c(c3N3CCC[C@H](N)C3)CCC4O)ccc2F)c(F)c1 (single isomer, unassigned) [58 (Diastereoisomer 1)] | ≤ 100 nM | ≤ 100 nM | 100 to 1000 nM
9 | CSc1cc(F)c(-c2nc(C(=O)Nc3cnc4c(c3N3CCC[C@H](N)C3)CCC4O)ccc2F)c(F)c1 (single isomer, unassigned) [58 (Diastereoisomer 2)] | ≤ 100 nM | ≤ 100 nM | 100 to 1000 nM
10 | C[S+]([O-])c1cc(F)c(-c2nc(C(=O)Nc3cnc4c(c3N3CCC[C@H](N)C3)CCC4O)ccc2F)c(F)c1 (single isomer, unassigned) [59 (Diastereoisomer 1)] | ≤ 100 nM | ≤ 100 nM | 100 to 1000 nM
11 | C[S+]([O-])c1cc(F)c(-c2nc(C(=O)Nc3cnc4c(c3N3CCC[C@H](N)C3)CCC4O)ccc2F)c(F)c1 (single isomer, unassigned) [59 (Diastereoisomer 2)] | ≤ 100 nM | ≤ 100 nM | 100 to 1000 nM
12 | C[C@@H]1C[C@H](N)CN(c2c(NC(=O)c3ccc(F)c(-c4c(F)cc([S+](C)[O-])cc4F)n3)cnc3c2CCC3O)C1 (single isomer, unassigned) [60 (Diastereoisomer 1)] | ≤ 100 nM | ≤ 100 nM | 100 to 1000 nM
13 | C[C@@H]1C[C@H](N)CN(c2c(NC(=O)c3ccc(F)c(-c4c(F)cc([S+](C)[O-])cc4F)n3)cnc3c2CCC3O)C1 (single isomer, unassigned) [60 (Diastereoisomer 2)] | ≤ 100 nM | ≤ 100 nM | 100 to 1000 nM
14 | CS(=O)(=O)c1cc(F)c(-c2nc(C(=O)Nc3cnc4c(c3N3CCC[C@H](N)C3)CCC4O)ccc2F)c(F)c1 (single isomer, unassigned) [61 (Diastereoisomer 1)] | > 40 nM | ≤ 100 nM | > 2000 nM
15 | CS(=O)(=O)c1cc(F)c(-c2nc(C(=O)Nc3cnc4c(c3N3CCC[C@H](N)C3)CCC4O)ccc2F)c(F)c1 (single isomer, unassigned) [61 (Diastereoisomer 2)] | ≤ 100 nM | ≤ 100 nM | 100 to 1000 nM
16 | Nc1ncc(-c2c(F)cccc2F)nc1C(=O)Nc1cnc2c(c1N1CCC[C@H](N)C1)CCC2O (single isomer, unassigned) [62 (Diastereoisomer 1)] | ≤ 100 nM | ≤ 100 nM | 100 to 1000 nM
17 | Nc1ncc(-c2c(F)cccc2F)nc1C(=O)Nc1cnc2c(c1N1CCC[C@H](N)C1)CCC2O (single isomer, unassigned) [62 (Diastereoisomer 2)] | ≤ 100 nM | ≤ 100 nM | 100 to 1000 nM
18 | C[C@H]1CN(c2c(NC(=O)c3ccc(F)c(-c4c(F)cccc4F)n3)cnc3c2CCC3O)C[C@@H](N)C1(C)O (single isomer, unassigned) [63 (Diastereoisomer 1)] | ≤ 100 nM | ≤ 100 nM | ≤ 100 nM
19 | C[C@H]1CN(c2c(NC(=O)c3ccc(F)c(-c4c(F)cccc4F)n3)cnc3c2CCC3O)C[C@@H](N)C1(C)O (single isomer, unassigned) [63 (Diastereoisomer 2)] | ≤ 100 nM | ≤ 100 nM | ≤ 100 nM
20 | C[C@H]1CN(c2c(NC(=O)c3ccc(F)c(-c4c(F)cccc4F)n3)cnc3c2CCC3O)C[C@@H](N)C1(C)O (single isomer, unassigned) [63 (Diastereoisomer 3)] | ≤ 100 nM | ≤ 100 nM | ≤ 100 nM
21 | C[C@H]1CN(c2c(NC(=O)c3ccc(F)c(-c4c(F)cccc4F)n3)cnc3c2CCC3O)C[C@@H](N)C1(C)O (single isomer, unassigned) [63 (Diastereoisomer 4)] | ≤ 100 nM | ≤ 100 nM | ≤ 100 nM
22 | COCc1cc(F)c(-c2nc(C(=O)Nc3cnc4c(c3N3C[C@H](C)C[C@H](N)C3)CCC4O)ccc2F)c(F)c1 (single isomer, unassigned) [64 (Diastereoisomer 1)] | ≤ 100 nM | ≤ 100 nM | ≤ 100 nM
23 | COCc1cc(F)c(-c2nc(C(=O)Nc3cnc4c(c3N3C[C@H](C)C[C@H](N)C3)CCC4O)ccc2F)c(F)c1 (single isomer, unassigned) [64 (Diastereoisomer 2)] | ≤ 100 nM | ≤ 100 nM | ≤ 100 nM
24 | COCc1cc(F)c(-c2nc(C(=O)Nc3cnc4c(c3N3C[C@@H](N)[C@H](O)[C@@H](C)C3)CCC4O)ccc2F)c(F)c1 (single isomer, unassigned) [66 (Diastereoisomer 1)] | ≤ 100 nM | ≤ 100 nM | ≤ 100 nM
25 | COCc1cc(F)c(-c2nc(C(=O)Nc3cnc4c(c3N3C[C@@H](N)[C@H](O)[C@@H](C)C3)CCC4O)ccc2F)c(F)c1 (single isomer, unassigned) [66 (Diastereoisomer 2)] | ≤ 100 nM | ≤ 100 nM | ≤ 100 nM
26 | C[C@@H]1C[C@H](N)CN(c2c(NC(=O)c3ccc(F)c(-c4c(F)cc(C(C)(C)O)cc4F)n3)cnc3c2CCC3O)C1 (single isomer, unassigned) [67 (Diastereoisomer 1)] | ≤ 100 nM | ≤ 100 nM | ≤ 100 nM
27 | C[C@@H]1C[C@H](N)CN(c2c(NC(=O)c3ccc(F)c(-c4c(F)cc(C(C)(C)O)cc4F)n3)cnc3c2CCC3O)C1 (single isomer, unassigned) [67 (Diastereoisomer 2)] | ≤ 100 nM | ≤ 100 nM | ≤ 100 nM
28 | N[C@@H]1CN(c2c(NC(=O)c3ccc(F)c(-c4c(F)cccc4F)n3)cnc3c2CCC3O)C[C@H](C2CC2)[C@H]1O (single isomer, unassigned) [68 (Diastereoisomer 1)] | ≤ 100 nM | ≤ 100 nM | ≤ 100 nM
29 | N[C@@H]1CN(c2c(NC(=O)c3ccc(F)c(-c4c(F)cccc4F)n3)cnc3c2CCC3O)C[C@H](C2CC2)[C@H]1O (single isomer, unassigned) [68 (Diastereoisomer 2)] | ≤ 100 nM | ≤ 100 nM | ≤ 100 nM
30 | C[C@@H]1C[C@H](N)CN(c2c(NC(=O)c3ccc(F)c(-c4c(F)cc(OC5CCCOC5)cc4F)n3)cnc3c2CCC3O)C1 (single isomer, unassigned) [70 (Diastereoisomer 1)] | ≤ 100 nM | ≤ 100 nM | ≤ 100 nM
